In ChEMBL document CHEMBL5303573, “Mapping human microbiome drug metabolism by gut bacteria and their genes” (Nature, 2019):

Columns and labels:
[1] = The drug is tested on Bifidobacterium breve strain: DSM20213 for biotransformation. The drug concentrations were measured before and after a 12-h incubation by liquid-chromatography-coupled mass spectrometry (LC–MS); details: 2 µM
[2] = The drug is tested on Ruminococcus lactaris strain: ATCC29176 for biotransformation. The drug concentrations were measured before and after a 12-h incubation by liquid-chromatography-coupled mass spectrometry (LC–MS); details: 2 µM
[3] = The drug is tested on Odoribacter splanchnicus strain: fecal isolate for biotransformation. The drug concentrations were measured before and after a 12-h incubation by liquid-chromatography-coupled mass spectrometry (LC–MS); details: 2 µM
[4] = bifidobacterium adolescentis, 12 h, 2 µM
Description: The drug is tested on Bifidobacterium adolescentis strain: ATCC 15703 for biotransformation. The drug concentrations were measured before and after a 12-h incubation by liquid-chromatography-coupled mass spectrometry (LC–MS)

[5] = The drug is tested on Bacteroides sp. WH2 strain: WH2 for biotransformation. The drug concentrations were measured before and after a 12-h incubation by liquid-chromatography-coupled mass spectrometry (LC–MS); details: bacteroides sp. wh2, 12 h, 2 µM
[6] = The drug is tested on Eubacterium hallii strain: DSM3353 for biotransformation. The drug concentrations were measured before and after a 12-h incubation by liquid-chromatography-coupled mass spectrometry (LC–MS); details: anaerobutyricum hallii, 2 µM
[7] = The drug is tested on Bacteroides fragilis strain: HMW615 for biotransformation. The drug concentrations were measured before and after a 12-h incubation by liquid-chromatography-coupled mass spectrometry (LC–MS); details: 2 µM
[8] = The drug is tested on Bacteroides xylanisolvens strain: DSM18836 for biotransformation. The drug concentrations were measured before and after a 12-h incubation by liquid-chromatography-coupled mass spectrometry (LC–MS); details: 2 µM
[9] = The drug is tested on Eubacterium rectale strain: ATCC33656 for biotransformation. The drug concentrations were measured before and after a 12-h incubation by liquid-chromatography-coupled mass spectrometry (LC–MS); details: agathobacter rectalis, 2 µM
[10] = bacteroides stercoris, 12 h, 2 µM
Description: The drug is tested on Bacteroides stercoris strain: ATCC43183 for biotransformation. The drug concentrations were measured before and after a 12-h incubation by liquid-chromatography-coupled mass spectrometry (LC–MS)

[11] = enterocloster bolteae, 12 h, 2 µM
Description: The drug is tested on Clostridium bolteae strain: ATCCBAA-613 for biotransformation. The drug concentrations were measured before and after a 12-h incubation by liquid-chromatography-coupled mass spectrometry (LC–MS)

[12] = The drug is tested on Eubacterium ventriosum strain: ATCC27560 for biotransformation. The drug concentrations were measured before and after a 12-h incubation by liquid-chromatography-coupled mass spectrometry (LC–MS); type: ADME; set-up: dose 2 uM, timepoint 0 vs 12 hours; details: 2 µM
[13] = The drug is tested on Eggerthella lenta strain: ATCC25559 for biotransformation. The drug concentrations were measured before and after a 12-h incubation by liquid-chromatography-coupled mass spectrometry (LC–MS); details: 2 µM
[14] = The drug is tested on Bacteroides cellulosilyticus strain: DSM14838 for biotransformation. The drug concentrations were measured before and after a 12-h incubation by liquid-chromatography-coupled mass spectrometry (LC–MS); details: 2 µM
[15] = bacteroides eggerthii, 12 h, 2 µM
Description: The drug is tested on Bacteroides eggerthii strain: DSM20697 for biotransformation. The drug concentrations were measured before and after a 12-h incubation by liquid-chromatography-coupled mass spectrometry (LC–MS)

[16] = limosilactobacillus reuteri cf48-3a, 12 h, 2 µM
Description: The drug is tested on Lactobacillus reuteri CF48-3A strain: BEI HM-102 for biotransformation. The drug concentrations were measured before and after a 12-h incubation by liquid-chromatography-coupled mass spectrometry (LC–MS)

[17] = The drug is tested on Anaerotruncus colihominis strain: DSM17241 for biotransformation. The drug concentrations were measured before and after a 12-h incubation by liquid-chromatography-coupled mass spectrometry (LC–MS); details: 2 µM
[18] = The drug is tested on Clostridium scindens strain: ATCC35704 for biotransformation. The drug concentrations were measured before and after a 12-h incubation by liquid-chromatography-coupled mass spectrometry (LC–MS); details: 2 µM
[19] = The drug is tested on Clostridium asparagiforme strain: DSM15981 for biotransformation. The drug concentrations were measured before and after a 12-h incubation by liquid-chromatography-coupled mass spectrometry (LC–MS); type: ADME; set-up: dose 2 uM, timepoint 0 vs 12 hours; details: enterocloster asparagiformis, 2 µM
[20] = The drug is tested on Bacteroides fragilis strain: ATCC43859 for biotransformation. The drug concentrations were measured before and after a 12-h incubation by liquid-chromatography-coupled mass spectrometry (LC–MS); details: 2 µM

| SMILES | Bacterial Biotransformation [1] | Bacterial Biotransformation [2] | Bacterial Biotransformation [3] | Bacterial Biotransformation [4] | Bacterial Biotransformation [5] | Bacterial Biotransformation [6] | Bacterial Biotransformation [7] | Bacterial Biotransformation [8] | Bacterial Biotransformation [9] | Bacterial Biotransformation [10] | Bacterial Biotransformation [11] | Bacterial Biotransformation [12] | Bacterial Biotransformation [13] | Bacterial Biotransformation [14] | Bacterial Biotransformation [15] | Bacterial Biotransformation [16] | Bacterial Biotransformation [17] | Bacterial Biotransformation [18] | Bacterial Biotransformation [19] | Bacterial Biotransformation [20] |
| --- | --- | --- | --- | --- | --- | --- | --- | --- | --- | --- | --- | --- | --- | --- | --- | --- | --- | --- | --- | --- |
| CC(=O)SCC(Cc1ccccc1)C(=O)NCC(=O)OCc1ccccc1 (stereo unspecified) [RACECADOTRIL] | Compound metabolized | Compound metabolized | Compound metabolized | Compound metabolized | Compound metabolized | Compound NOT metabolized | Compound metabolized | Compound metabolized | Compound NOT metabolized | Compound metabolized | Compound NOT metabolized | Compound metabolized | Compound NOT metabolized | Compound metabolized |  |  |  |  |  |  |
| CCCC1O[C@@H]2C[C@H]3[C@@H]4CCC5=CC(=O)C=C[C@]5(C)[C@H]4[C@@H](O)C[C@]3(C)[C@]2(C(=O)CO)O1 (stereo partly specified) [BUDESONIDE] | Compound NOT metabolized | Compound NOT metabolized | Compound metabolized | Compound NOT metabolized | Compound NOT metabolized | Compound NOT metabolized | Compound metabolized |  | Compound NOT metabolized | Compound metabolized | Compound NOT metabolized | Compound NOT metabolized |  | Compound NOT metabolized | Compound metabolized | Compound NOT metabolized | Compound NOT metabolized | Compound NOT metabolized | Compound metabolized | Compound metabolized |
| CCOC(=O)[C@H](CCc1ccccc1)N[C@H]1CCc2ccccc2N(CC(=O)O)C1=O [BENAZEPRIL] | Compound NOT metabolized | Compound NOT metabolized | Compound metabolized | Compound NOT metabolized | Compound metabolized | Compound NOT metabolized | Compound metabolized | Compound metabolized | Compound NOT metabolized | Compound metabolized | Compound NOT metabolized | Compound NOT metabolized |  | Compound NOT metabolized | Compound metabolized | Compound NOT metabolized | Compound NOT metabolized | Compound NOT metabolized | Compound metabolized | Compound metabolized |
| COC(=O)[C@H](c1ccccc1Cl)N1CCc2sccc2C1.O=S(=O)(O)O [CLOPIDOGREL BISULFATE] | Compound NOT metabolized | Compound NOT metabolized | Compound metabolized | Compound NOT metabolized | Compound NOT metabolized | Compound NOT metabolized | Compound metabolized | Compound metabolized |  | Compound metabolized | Compound NOT metabolized | Compound NOT metabolized |  | Compound NOT metabolized | Compound metabolized | Compound NOT metabolized | Compound NOT metabolized | Compound NOT metabolized | Compound NOT metabolized | Compound metabolized |
| NS(=O)(=O)c1cc2c(cc1Cl)N=C(CSCc1ccccc1)NS2(=O)=O [BENZTHIAZIDE] | Compound NOT metabolized |  | Compound NOT metabolized | Compound NOT metabolized | Compound NOT metabolized | Compound NOT metabolized | Compound NOT metabolized |  |  | Compound NOT metabolized | Compound NOT metabolized |  |  | Compound NOT metabolized | Compound NOT metabolized | Compound NOT metabolized | Compound NOT metabolized | Compound NOT metabolized | Compound NOT metabolized | Compound NOT metabolized |
| Cc1nc2n(c(=O)c1CCN1CCC(c3noc4cc(F)ccc34)CC1)CCCC2 [RISPERIDONE] | Compound metabolized | Compound metabolized | Compound metabolized | Compound NOT metabolized | Compound NOT metabolized | Compound metabolized |  | Compound NOT metabolized | Compound metabolized | Compound NOT metabolized | Compound NOT metabolized | Compound NOT metabolized |  | Compound NOT metabolized |  | Compound NOT metabolized | Compound metabolized | Compound metabolized | Compound metabolized | Compound metabolized |
| c1ccc([C@H]2CN3CCSC3=N2)cc1 [LEVAMISOLE] | Compound metabolized | Compound NOT metabolized | Compound metabolized | Compound NOT metabolized | Compound NOT metabolized | Compound NOT metabolized |  | Compound metabolized | Compound NOT metabolized | Compound metabolized | Compound metabolized | Compound NOT metabolized |  | Compound NOT metabolized | Compound metabolized |  | Compound metabolized | Compound metabolized | Compound metabolized | Compound metabolized |
| COc1cc(NC(C)CCCN)c2ncccc2c1.O=P(O)(O)O.O=P(O)(O)O (stereo unspecified) [PRIMAQUINE PHOSPHATE] | Compound metabolized |  |  | Compound NOT metabolized | Compound NOT metabolized | Compound NOT metabolized | Compound NOT metabolized | Compound metabolized | Compound NOT metabolized | Compound NOT metabolized | Compound metabolized |  | Compound NOT metabolized |  | Compound NOT metabolized | Compound NOT metabolized |  |  |  |  |
| CCOC(=O)[C@H](CCc1ccccc1)N[C@@H](C)C(=O)N1[C@H](C(=O)O)C[C@H]2CCCC[C@@H]21 [TRANDOLAPRIL] | Compound metabolized | Compound NOT metabolized | Compound metabolized | Compound NOT metabolized |  | Compound NOT metabolized | Compound metabolized | Compound metabolized | Compound NOT metabolized |  | Compound metabolized | Compound NOT metabolized |  | Compound metabolized | Compound metabolized | Compound NOT metabolized |  | Compound NOT metabolized | Compound NOT metabolized | Compound metabolized |
| O=P1(N(CCCl)CCCl)NCCCO1 (stereo unspecified) [CYCLOPHOSPHAMIDE ANHYDROUS] | Compound NOT metabolized |  | Compound NOT metabolized | Compound NOT metabolized | Compound NOT metabolized |  | Compound metabolized | Compound NOT metabolized | Compound NOT metabolized | Compound NOT metabolized |  |  | Compound NOT metabolized |  | Compound NOT metabolized |  |  |  |  |  |
